# Patent US20260297085A1, “1 H-PYRROLO[2,3-B]PYRIDIN-4-YL]-2-OXOPYRROLIDINE-3-CARBONITRILE DERIVATIVES AS TYROSINE KINASE 2 (TYK2) INHIBITORS FOR THE TREATMENT OF INFLAMMATORY DISEASES” (BIOGEN MA INC., priority 2023, published 2026)
# Structures can show the parent of a compound that is named as a salt.
# Tests used:
# [1] = target: T1, human TYK2 kinase domain (JH1) (Homo sapiens, UniProt P29597); assay: JH1 biochemical assay for TYK2 (ADP-Glo kinase assay, recombinant JH1 catalytic domain, JAK3-974 peptide, 10 μM ATP)
# T1 construct: recombinantly generated catalytic kinase (also known as JH1) domain of human JAK1, JAK2, JAK3 and TYK2
# T1 sequence (P29597 897-1176 limits assumed): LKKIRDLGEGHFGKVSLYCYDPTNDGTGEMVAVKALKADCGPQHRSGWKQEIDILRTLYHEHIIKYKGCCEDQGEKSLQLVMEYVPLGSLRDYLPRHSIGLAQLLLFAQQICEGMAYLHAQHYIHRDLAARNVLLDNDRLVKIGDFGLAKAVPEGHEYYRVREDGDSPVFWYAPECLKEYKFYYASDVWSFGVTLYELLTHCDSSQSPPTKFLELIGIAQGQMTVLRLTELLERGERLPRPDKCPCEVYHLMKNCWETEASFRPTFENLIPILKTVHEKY
# Procedure, shortened: (§1)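 Kinase 4 nM JAK1 / 0.2 nM JAK2 / 0.3 nM JAK3 / 2 nM TYK2; 50 μM peptide; 100 min. Unused ATP depleted, ADP→ATP, luciferase luminescence. 11-pt 3-fold series from 10 or 1 μM; normalized, 4PL fit → IC50.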
# [2] = target: T2, human JAK1 kinase domain (JH1) (Homo sapiens, UniProt P23458); assay: JH1 biochemical assay for JAK1 (ADP-Glo kinase assay, recombinant JH1 catalytic domain, JAK3-342 peptide, 35 μM ATP)
# T2 construct: recombinantly generated catalytic kinase (also known as JH1) domain of human JAK1, JAK2, JAK3 and TYK2
# T2 sequence (P23458 875-1153 limits assumed): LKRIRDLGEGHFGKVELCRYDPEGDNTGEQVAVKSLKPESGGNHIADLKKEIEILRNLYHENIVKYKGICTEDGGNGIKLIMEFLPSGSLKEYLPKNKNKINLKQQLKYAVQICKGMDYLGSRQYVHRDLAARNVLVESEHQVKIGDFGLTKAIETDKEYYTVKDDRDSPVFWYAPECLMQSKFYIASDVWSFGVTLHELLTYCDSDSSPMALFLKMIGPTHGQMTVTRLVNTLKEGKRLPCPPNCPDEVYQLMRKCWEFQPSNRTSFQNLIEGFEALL
# Procedure, shortened: as §1
# [3] = target: T3, human JAK2 kinase domain (JH1) (Homo sapiens, UniProt O60674); assay: JH1 biochemical assay for JAK2 (ADP-Glo kinase assay, recombinant JH1 catalytic domain, JAK3-974 peptide, 15 μM ATP)
# T3 construct: recombinantly generated catalytic kinase (also known as JH1) domain of human JAK1, JAK2, JAK3 and TYK2
# T3 sequence (O60674 849-1124 limits assumed): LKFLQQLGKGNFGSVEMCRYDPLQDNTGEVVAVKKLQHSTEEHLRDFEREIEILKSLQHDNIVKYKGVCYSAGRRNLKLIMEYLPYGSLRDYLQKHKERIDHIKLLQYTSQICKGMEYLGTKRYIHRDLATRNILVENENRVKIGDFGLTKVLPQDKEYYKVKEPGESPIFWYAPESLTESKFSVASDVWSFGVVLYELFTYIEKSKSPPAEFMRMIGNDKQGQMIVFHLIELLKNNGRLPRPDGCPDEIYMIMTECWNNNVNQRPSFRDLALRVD
# Procedure, shortened: as §1
# [4] = target: T4, human JAK3 kinase domain (JH1) (Homo sapiens, UniProt P52333); assay: JH1 biochemical assay for JAK3 (ADP-Glo kinase assay, recombinant JH1 catalytic domain, JAK3-974 peptide, 4 μM ATP)
# T4 construct: recombinantly generated catalytic kinase (also known as JH1) domain of human JAK1, JAK2, JAK3 and TYK2
# T4 sequence (P52333 822-1111 limits assumed): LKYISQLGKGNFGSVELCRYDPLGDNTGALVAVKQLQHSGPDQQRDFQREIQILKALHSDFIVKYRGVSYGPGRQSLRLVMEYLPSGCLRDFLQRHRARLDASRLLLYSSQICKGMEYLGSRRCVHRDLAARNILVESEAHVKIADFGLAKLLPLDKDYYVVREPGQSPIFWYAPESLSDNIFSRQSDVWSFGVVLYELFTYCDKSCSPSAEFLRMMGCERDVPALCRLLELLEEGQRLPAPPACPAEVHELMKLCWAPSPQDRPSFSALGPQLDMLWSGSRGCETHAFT
# Procedure, shortened: as §1
# [5] = target: Tyk2 kinase activity on STAT4 in NK92 cells (Homo sapiens, UniProt P29597); assay: pSTAT4 cell assay (MSD; NK92 cells, 30 ng/mL IL2 stimulation); assay type: cell-based; conditions: 30 ng/mL IL2, 15 minutes
# Tyk2 kinase activity on STAT4 in NK92 cells, sequence (P29597 whole entry): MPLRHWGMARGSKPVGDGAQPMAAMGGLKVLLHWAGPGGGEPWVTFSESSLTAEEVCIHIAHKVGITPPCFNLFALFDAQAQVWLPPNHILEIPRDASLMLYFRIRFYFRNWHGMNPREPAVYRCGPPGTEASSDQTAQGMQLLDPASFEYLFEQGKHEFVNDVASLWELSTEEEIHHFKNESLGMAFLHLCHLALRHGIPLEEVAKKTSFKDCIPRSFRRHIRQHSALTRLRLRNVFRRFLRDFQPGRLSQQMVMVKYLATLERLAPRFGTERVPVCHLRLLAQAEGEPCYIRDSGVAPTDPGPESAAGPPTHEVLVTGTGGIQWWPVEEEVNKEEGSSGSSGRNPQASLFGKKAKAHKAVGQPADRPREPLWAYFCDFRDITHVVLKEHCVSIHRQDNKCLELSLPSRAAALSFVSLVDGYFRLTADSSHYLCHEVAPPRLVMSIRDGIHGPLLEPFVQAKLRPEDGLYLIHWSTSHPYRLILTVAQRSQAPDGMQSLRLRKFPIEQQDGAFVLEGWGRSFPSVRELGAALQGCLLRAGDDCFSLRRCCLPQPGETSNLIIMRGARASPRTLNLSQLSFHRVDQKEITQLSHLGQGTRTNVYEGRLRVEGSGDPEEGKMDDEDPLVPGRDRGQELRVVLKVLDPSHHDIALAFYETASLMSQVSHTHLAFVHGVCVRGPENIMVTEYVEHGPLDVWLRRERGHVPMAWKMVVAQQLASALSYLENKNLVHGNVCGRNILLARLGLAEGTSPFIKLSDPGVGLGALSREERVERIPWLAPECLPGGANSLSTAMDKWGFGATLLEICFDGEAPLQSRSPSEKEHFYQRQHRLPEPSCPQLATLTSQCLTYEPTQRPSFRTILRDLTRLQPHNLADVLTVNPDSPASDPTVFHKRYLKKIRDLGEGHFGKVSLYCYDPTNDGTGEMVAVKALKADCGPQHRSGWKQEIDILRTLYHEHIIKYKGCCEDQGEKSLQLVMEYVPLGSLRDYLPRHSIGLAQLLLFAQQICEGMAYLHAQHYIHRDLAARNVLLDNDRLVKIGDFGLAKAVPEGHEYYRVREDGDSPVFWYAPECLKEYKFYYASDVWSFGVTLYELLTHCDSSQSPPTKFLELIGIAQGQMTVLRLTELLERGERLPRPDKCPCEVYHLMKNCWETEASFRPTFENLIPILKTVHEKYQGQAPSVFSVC
# Procedure, shortened: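 Read-out: phospho-STAT in NK92 lysates, MSD format, anti-STAT4 antibodies. Cells were serum-starved, given compound for 1 hr (10 μM top, four-fold, 10 points) and IL2-stimulated (30 ng/mL, 15 min). Normalized percent activity vs log concentration, 4-parameter logistic fit gave IC50.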
# [6] = target: JAK2 kinase activity on STAT5 in TF1 cells (Homo sapiens, UniProt O60674); assay: pSTAT5 cell assay (MSD; TF1 cells, 30 ng/mL IL-3 stimulation); assay type: cell-based; conditions: 30 ng/mL IL-3, 15 minutes
# JAK2 kinase activity on STAT5 in TF1 cells, sequence (O60674 whole entry): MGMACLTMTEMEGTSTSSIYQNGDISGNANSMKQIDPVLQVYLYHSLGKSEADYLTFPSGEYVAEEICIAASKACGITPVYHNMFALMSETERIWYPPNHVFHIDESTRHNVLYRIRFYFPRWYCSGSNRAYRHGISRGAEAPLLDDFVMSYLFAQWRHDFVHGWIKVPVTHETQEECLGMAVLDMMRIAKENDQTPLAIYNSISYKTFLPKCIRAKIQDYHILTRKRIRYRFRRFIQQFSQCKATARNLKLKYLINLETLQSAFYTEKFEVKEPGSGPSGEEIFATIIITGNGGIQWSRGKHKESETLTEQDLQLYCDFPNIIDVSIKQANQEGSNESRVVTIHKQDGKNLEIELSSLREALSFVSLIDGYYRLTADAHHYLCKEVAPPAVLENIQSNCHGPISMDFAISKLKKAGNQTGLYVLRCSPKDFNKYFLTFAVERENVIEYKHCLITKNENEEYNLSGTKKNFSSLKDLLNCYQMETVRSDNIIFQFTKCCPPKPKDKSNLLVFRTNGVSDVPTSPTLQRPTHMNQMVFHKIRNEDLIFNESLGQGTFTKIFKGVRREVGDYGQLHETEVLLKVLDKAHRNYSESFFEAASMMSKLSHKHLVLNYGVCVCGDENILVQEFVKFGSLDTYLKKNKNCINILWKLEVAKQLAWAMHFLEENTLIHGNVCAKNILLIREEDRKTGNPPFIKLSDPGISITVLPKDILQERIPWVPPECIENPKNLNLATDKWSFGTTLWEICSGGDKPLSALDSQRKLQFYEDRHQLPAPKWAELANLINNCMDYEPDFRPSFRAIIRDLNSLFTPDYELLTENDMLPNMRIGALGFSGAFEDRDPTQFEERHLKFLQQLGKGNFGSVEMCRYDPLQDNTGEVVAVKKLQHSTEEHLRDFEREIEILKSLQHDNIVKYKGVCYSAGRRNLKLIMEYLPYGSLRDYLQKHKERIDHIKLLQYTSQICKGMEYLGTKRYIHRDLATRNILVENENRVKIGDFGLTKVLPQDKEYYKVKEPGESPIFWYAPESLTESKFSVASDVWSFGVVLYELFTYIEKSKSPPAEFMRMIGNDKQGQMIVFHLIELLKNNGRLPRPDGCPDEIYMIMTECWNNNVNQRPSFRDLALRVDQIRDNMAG
# Procedure, shortened: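 IC50 from a 4-parameter logistic fit of normalized pSTAT5 signal, measured by MSD in lysates of TF1 cells. Cells were serum-starved, exposed to compound for 1 h (top concentration 10 μM, four-fold, 10 points), then given IL-3 at 30 ng/mL for 15 min.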
# [7] = target: JAK1 kinase activity on STAT3 in TF1 cells (Homo sapiens, UniProt P23458); assay: pSTAT3 cell assay (MSD; TF1 cells, 30 ng/mL IL-6 stimulation); assay type: cell-based; conditions: 30 ng/mL IL-6, 15 minutes
# JAK1 kinase activity on STAT3 in TF1 cells, sequence (P23458 whole entry): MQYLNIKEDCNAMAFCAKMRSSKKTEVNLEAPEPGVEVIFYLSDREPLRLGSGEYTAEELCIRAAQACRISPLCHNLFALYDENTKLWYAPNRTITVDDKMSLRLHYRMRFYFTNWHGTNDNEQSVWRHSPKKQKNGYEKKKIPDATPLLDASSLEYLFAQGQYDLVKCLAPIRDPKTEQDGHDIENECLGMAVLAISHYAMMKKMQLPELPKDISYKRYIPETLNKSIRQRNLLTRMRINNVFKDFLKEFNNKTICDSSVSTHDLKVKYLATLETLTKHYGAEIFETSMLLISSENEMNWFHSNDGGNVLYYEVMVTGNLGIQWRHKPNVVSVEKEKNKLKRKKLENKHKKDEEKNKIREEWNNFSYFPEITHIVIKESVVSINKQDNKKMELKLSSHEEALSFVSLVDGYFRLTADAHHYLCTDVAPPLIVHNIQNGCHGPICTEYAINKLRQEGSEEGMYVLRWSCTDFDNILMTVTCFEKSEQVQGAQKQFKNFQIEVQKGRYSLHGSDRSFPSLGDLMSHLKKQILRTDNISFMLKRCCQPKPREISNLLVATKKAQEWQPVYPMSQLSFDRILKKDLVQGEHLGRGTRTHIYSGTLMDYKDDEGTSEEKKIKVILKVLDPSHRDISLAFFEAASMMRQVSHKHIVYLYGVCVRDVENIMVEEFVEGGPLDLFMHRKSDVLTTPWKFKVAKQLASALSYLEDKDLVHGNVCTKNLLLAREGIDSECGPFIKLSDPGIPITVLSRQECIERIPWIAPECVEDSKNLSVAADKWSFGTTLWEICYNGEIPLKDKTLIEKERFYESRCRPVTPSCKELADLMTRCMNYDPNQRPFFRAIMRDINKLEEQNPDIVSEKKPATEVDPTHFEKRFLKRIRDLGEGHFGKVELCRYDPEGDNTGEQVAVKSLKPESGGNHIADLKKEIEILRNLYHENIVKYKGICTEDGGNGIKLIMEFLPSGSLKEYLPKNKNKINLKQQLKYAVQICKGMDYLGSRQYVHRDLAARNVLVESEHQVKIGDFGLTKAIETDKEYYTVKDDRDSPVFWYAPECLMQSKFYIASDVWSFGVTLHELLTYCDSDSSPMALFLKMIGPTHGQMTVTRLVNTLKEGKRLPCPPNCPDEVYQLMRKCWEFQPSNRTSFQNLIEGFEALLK
# Procedure, shortened: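 IC50 values reflect 4-parameter logistic fits of normalized pSTAT3 signal, measured by MSD in lysed TF1 cells. Cells were serum-starved and treated with compound for 1 h (top concentration 10 μM) before a 15 min IL-6 challenge.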
SMILES,"IC50 ([1]; JH1 kinase domain, ADP-Glo)","IC50 ([2]; JH1 kinase domain, ADP-Glo)","IC50 ([3]; JH1 kinase domain, ADP-Glo)","IC50 ([4]; JH1 kinase domain, ADP-Glo)",IC50 [5],IC50 [6],IC50 [7],"IC50 ([1]; TYK2 JH1, ADP-Glo)","IC50 ([2]; JAK1 JH1, ADP-Glo)","IC50 ([3]; JAK2 JH1, ADP-Glo)","IC50 ([4]; JAK3 JH1, ADP-Glo)"
"C[C@@H]1CN(c2nc(-c3cnn(C4CCOCC4)c3)cn3nccc23)C(=O)[C@]1(C#N)C1CC1 [Example 203, (3R,4S)-3-cyclopropyl-4-methyl-2-oxo-1-(6-(1-(tetrahydro-2H-pyran-4-yl)-1H-pyrazol-4-yl)pyrazolo[1,5-a]pyrazin-4-yl)pyrrolidine-3-carbonitrile]",< 5 nM,< 100 nM,< 100 nM,< 100 nM,20 to 50 nM,< 0.1 µM,100 to 1000 nM,,,,
"CNC(=O)c1ccc(-c2cc3c(N4C[C@@H](C)[C@@](C#N)(C5CC5)C4=O)ccnn3c2)cn1 [Example 58, 5-(4-((3R,4S)-3-cyano-3-cyclopropyl-4-methyl-2-oxopyrrolidin-1-yl)pyrrolo[1,2-b]pyridazin-6-yl)-N-methylpicolinamide]",5 to 20 nM,100 to 1000 nM,100 to 1000 nM,100 to 1000 nM,50 to 100 nM,> 10 µM,1000 to 5000 nM,,,,
"C[C@@H]1CN(c2nc(-c3cc[nH]n3)cn3nccc23)C(=O)[C@]1(C#N)C1CC1 [Example 232, (3R,4S)-1-(6-(1H-pyrazol-3-yl)pyrazolo[1,5-a]pyrazin-4-yl)-3-cyclopropyl-4-methyl-2-oxopyrrolidine-3-carbonitrile trifluoroacetate]",,,,,> 100 nM,> 10 µM,1000 to 5000 nM,5 to 20 nM,< 100 nM,100 to 1000 nM,100 to 1000 nM
"C[C@@H]1CN(c2ccnn3cc(-c4ccc5nccn5c4)cc23)C(=O)[C@]1(C#N)C1CC1 [Example 88, (3R,4S)-3-cyclopropyl-1-(6-(imidazo[1,2-a]pyridin-6-yl)pyrrolo[1,2-b]pyridazin-4-yl)-4-methyl-2-oxopyrrolidine-3-carbonitrile]",< 5 nM,< 100 nM,100 to 1000 nM,100 to 1000 nM,20 to 50 nM,1 to 5 µM,100 to 1000 nM,,,,
"CC(C)n1cc(-c2cc3nccc(N4C[C@@H](C)[C@@](C#N)(C5CC5)C4=O)c3o2)cn1 [Example 346, (3R,4S)-3-cyclopropyl-1-(2-(1-isopropyl-1H-pyrazol-4-yl)furo[3,2-b]pyridin-7-yl)-4-methyl-2-oxopyrrolidine-3-carbonitrile]",,,,,> 100 nM,1 to 5 µM,1000 to 5000 nM,< 5 nM,< 100 nM,100 to 1000 nM,< 100 nM
"C[C@@H]1CN(c2ccnc3cc(-c4cnn(C)c4)oc23)C(=O)[C@]1(C#N)C1CC1 [Example 268, (3R,4S)-3-cyclopropyl-4-methyl-1-(2-(1-methyl-1H-pyrazol-4-yl)furo[3,2-b]pyridin-7-yl)-2-oxopyrrolidine-3-carbonitrile]",,,,,50 to 100 nM,> 10 µM,1000 to 5000 nM,5 to 20 nM,100 to 1000 nM,100 to 1000 nM,100 to 1000 nM
"C[C@@H]1CN(c2ccnn3cc(-c4cnn([C@H]5C[C@H](C#N)C5)c4)cc23)C(=O)[C@]1(C#N)C1CC1 [Example 330, (3R,4S)-1-(6-(1-((1r,3R)-3-cyanocyclobutyl)-1H-pyrazol-4-yl)pyrrolo[1,2-b]pyridazin-4-yl)-3-cyclopropyl-4-methyl-2-oxopyrrolidine-3-carbonitrile]",,,,,20 to 50 nM,1 to 5 µM,1000 to 5000 nM,< 5 nM,< 100 nM,< 100 nM,< 100 nM
"C[C@@H]1CN(c2ccnn3cc(-c4ccc(F)nc4)cc23)C(=O)[C@]1(C#N)C1CC1 [Example 81, (3R,4S)-3-cyclopropyl-1-(6-(6-fluoropyridin-3-yl)pyrrolo[1,2-b]pyridazin-4-yl)-4-methyl-2-oxopyrrolidine-3-carbonitrile]",5 to 20 nM,100 to 1000 nM,100 to 1000 nM,100 to 1000 nM,> 100 nM,> 10 µM,5000 to 10000 nM,,,,
